The results in this text go back to ChEMBL document CHEMBL3860026, “Depsidones from Lichens as Natural Product Inhibitors of M-Phase Phosphoprotein 1, a Human Kinesin Required for Cytokinesis” (J Nat Prod, 2016).

The EC50 is the concentration needed to bring the measured effect to its halfway point. As usually defined, the half-life is how long it takes for the measured level to halve. A lower half-life goes with fast loss. In general, solubility (kinetic) refers to the concentration staying in solution when a stock, usually in DMSO, is diluted into the medium. As usually defined, the Papp is a coefficient for how fast a substance crosses the barrier. The term IC50 denotes the midpoint of a concentration-inhibition curve. Low readings indicate higher potency, high ones lower potency. The term efflux ratio denotes the permeability from basolateral to apical divided by that in the opposite direction, in the common usage. As usually defined, the logD is the decadic logarithm of the distribution of all forms, ionised or not, between an organic phase and buffer at a given pH. Low values mean lower lipophilicity, high ones higher lipophilicity.

A short description of data set [1]: Passive permeability of the compound assessed as compound recovery at 10 uM after 5 hrs by PAMPA. The format is ADME. Particulars: read-out: Drug recovery. (In general: In PAMPA a lipid-coated filter parts donor from acceptor wells.)
Data set [2] is described as follows: Cytotoxicity against human J82 cells assessed as growth inhibition after 72 hrs by Alamar Blue assay. The format is functional, cell-based. To be noted: J82, 72 h. A general note: Resazurin is reduced to fluorescent resorufin, in cell work by metabolically active cells.
A short description of data set [3]: Drug metabolism in human liver microsomes assessed as 3,8-dihydroxy-6-(5-hydroxypentyl)-1-pentanoyl-11H-dibenzo[b,e][1,4]dioxepin-11-one formation at 3 uM in presence of NADPH after 5 to 45 mins by LC-MS/MS method. The format is ADME. In general terms: Liver microsomes are a subcellular fraction often used to study metabolism.
Data set [4] is described as follows: Half life in mouse liver microsomes at 3 uM by LC-MS/MS method. The format is ADME.
The nature of data set [5]: Solubility of the compound in phosphate buffered saline at pH 2 after 2 hrs by turbidimetric method. The format is physicochemical.
A short description of data set [6]: Solubility of the compound in phosphate buffered saline at pH 6 after 2 hrs by turbidimetric method. The format is physicochemical.
In data set [7] the target is T1, Kinesin-like protein KIF20B (Homo sapiens, UniProt Q96Q89). As to the kind of experiment: Inhibition of basal ATPase activity of N-terminal His6-tagged/SUMO-fused human MPP1 motor domain (57 to 491 residues) expressed in Escherichia coli BL21 CodonPlus in presence of 0.1% Tween-20 by pyruvate kinase/lactate dehydrogenase-linked assay.
T1 sequence (Q96Q89 whole entry, the tested form may be a part): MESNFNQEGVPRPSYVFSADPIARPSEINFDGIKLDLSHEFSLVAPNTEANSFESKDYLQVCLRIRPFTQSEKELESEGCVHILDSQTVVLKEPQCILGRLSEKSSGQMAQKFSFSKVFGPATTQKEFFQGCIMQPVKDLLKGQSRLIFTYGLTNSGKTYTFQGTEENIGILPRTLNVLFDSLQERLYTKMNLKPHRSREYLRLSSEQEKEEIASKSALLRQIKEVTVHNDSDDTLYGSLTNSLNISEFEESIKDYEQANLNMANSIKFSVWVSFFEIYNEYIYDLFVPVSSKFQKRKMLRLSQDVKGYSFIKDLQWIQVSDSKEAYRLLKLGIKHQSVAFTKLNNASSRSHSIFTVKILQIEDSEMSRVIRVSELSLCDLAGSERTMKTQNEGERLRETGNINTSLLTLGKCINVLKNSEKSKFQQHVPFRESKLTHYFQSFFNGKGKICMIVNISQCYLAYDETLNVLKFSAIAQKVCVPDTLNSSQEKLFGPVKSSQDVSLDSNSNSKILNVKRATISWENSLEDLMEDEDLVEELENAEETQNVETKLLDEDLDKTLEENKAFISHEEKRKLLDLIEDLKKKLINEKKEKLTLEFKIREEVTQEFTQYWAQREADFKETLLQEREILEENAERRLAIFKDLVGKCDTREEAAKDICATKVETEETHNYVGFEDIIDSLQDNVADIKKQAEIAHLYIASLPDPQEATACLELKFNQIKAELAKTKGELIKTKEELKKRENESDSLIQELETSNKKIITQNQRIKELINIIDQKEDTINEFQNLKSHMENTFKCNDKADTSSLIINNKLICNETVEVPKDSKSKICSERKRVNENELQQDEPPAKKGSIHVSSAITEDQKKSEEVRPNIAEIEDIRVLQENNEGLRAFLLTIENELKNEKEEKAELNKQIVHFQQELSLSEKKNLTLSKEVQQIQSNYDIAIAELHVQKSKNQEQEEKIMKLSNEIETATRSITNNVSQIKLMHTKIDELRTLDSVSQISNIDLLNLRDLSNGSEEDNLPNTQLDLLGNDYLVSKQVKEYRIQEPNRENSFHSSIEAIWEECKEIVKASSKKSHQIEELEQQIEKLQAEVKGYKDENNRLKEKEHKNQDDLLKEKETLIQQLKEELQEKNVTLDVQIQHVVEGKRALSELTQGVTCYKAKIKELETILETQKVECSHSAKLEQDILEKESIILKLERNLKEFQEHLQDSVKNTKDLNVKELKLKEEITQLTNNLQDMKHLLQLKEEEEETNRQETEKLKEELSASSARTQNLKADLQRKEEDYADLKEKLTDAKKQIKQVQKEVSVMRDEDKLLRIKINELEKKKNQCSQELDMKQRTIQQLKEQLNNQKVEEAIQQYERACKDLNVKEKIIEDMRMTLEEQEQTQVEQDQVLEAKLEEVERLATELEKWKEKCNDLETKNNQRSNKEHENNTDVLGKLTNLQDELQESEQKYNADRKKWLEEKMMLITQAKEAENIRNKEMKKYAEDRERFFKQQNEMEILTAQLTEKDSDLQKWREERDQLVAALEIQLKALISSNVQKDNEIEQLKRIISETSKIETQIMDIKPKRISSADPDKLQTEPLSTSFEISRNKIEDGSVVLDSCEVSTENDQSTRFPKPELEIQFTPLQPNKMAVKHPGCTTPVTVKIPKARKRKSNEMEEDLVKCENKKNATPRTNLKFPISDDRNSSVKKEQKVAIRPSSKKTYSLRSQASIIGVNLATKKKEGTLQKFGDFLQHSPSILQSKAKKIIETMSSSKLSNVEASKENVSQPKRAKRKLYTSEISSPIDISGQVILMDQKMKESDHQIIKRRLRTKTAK
Data set [8] is described as follows: Apparent passive permeability of the compound at 10 uM after 5 hrs by PAMPA. The format is ADME. Particulars: PAMPA.
Data set [9] can be described thus: Intrinsic clearance in mouse liver microsomes assessed per mg of protein at 3 uM after 5 to 60 mins by LC-MS/MS method. The format is ADME. To be noted: read-out: CLH.
The nature of data set [10]: Half life in human liver microsomes at 3 uM by LC-MS/MS method. The format is ADME.
Data set [11] concerns the target T1, Kinesin-like protein KIF20B. As to the kind of experiment: Inhibition of microtubule-stimulated ATPase activity of N-terminal His6-tagged/SUMO-fused human MPP1 motor domain (57 to 491 residues) expressed in Escherichia coli BL21 CodonPlus by pyruvate kinase/lactate dehydrogenase-linked assay.
Data set [12] can be described thus: Efflux ratio of apparent permeability across basolateral to apical over apical to basolateral side in human Caco2 cells at 10 uM after 2 hrs by LC-MS/MS method. The format is ADME, cell-based. Particulars: Caco-2.
Data set [13] can be described thus: Solubility of the compound in phosphate buffered saline at pH 7.4 after 2 hrs by turbidimetric method. The format is physicochemical.
Data set [14] addresses T1, Kinesin-like protein KIF20B. The experiment in a line: Inhibition of microtubule-stimulated ATPase activity of N-terminal His6-tagged/SUMO-fused human MPP1 motor domain (2 to 477 residues) expressed in Escherichia coli BL21 CodonPlus by pyruvate kinase/lactate dehydrogenase-linked assay.
A short description of data set [15]: Cytotoxicity against human BxPC3 cells assessed as growth inhibition after 72 hrs by Alamar Blue assay. The format is functional, cell-based. Particulars: BXPC-3, 72 h.
Data set [16] is described as follows: Cytotoxicity against human K562 cells assessed as growth inhibition after 72 hrs by Alamar Blue assay. The format is functional, cell-based. To be noted: K562, 72 h.
For data set [17], the target named is T1, Kinesin-like protein KIF20B. The experiment in a line: Inhibition of basal ATPase activity of N-terminal His6-tagged/SUMO-fused human MPP1 motor domain (57 to 491 residues) expressed in Escherichia coli BL21 CodonPlus by pyruvate kinase/lactate dehydrogenase-linked assay.
Data set [18] can be described thus: n-octanol-buffer distribution co-efficient, log D of the compound at pH 7.4 by shake flask method. The format is physicochemical.
Data set [19] is described as follows: Intrinsic clearance in human liver microsomes assessed per mg of protein at 3 uM after 5 to 60 mins by LC-MS/MS method. To be noted: read-out: CLH. The format is ADME.
A short description of data set [20]: Drug metabolism in human liver microsomes assessed as 2-(2,4-dihydroxy-6-pentylphenoxy)-4-hydroxy-6-pentanoylbenzoic acid formation at 3 uM in presence of NADPH after 5 to 45 mins by LC-MS/MS method. The format is ADME.
A short description of data set [21]: Drug metabolism in human liver microsomes assessed as methyl 2,4-dihydroxy-6-pentanoylbenzoate formation at 3 uM in presence of NADPH after 5 to 45 mins by LC-MS/MS method. The format is ADME.
The target of data set [22] is T1, Kinesin-like protein KIF20B. The experiment in a line: Inhibition of basal ATPase activity of N-terminal His6-tagged/SUMO-fused human MPP1 motor domain (2 to 477 residues) expressed in Escherichia coli BL21 CodonPlus by pyruvate kinase/lactate dehydrogenase-linked assay.
The nature of data set [23]: Cytotoxicity against human HCT116 cells assessed as growth inhibition after 72 hrs by Alamar Blue assay. The format is functional, cell-based. Particulars: HCT-116, 72 h.
The nature of data set [24]: Cytotoxicity against human UM-UC-3 cells assessed as growth inhibition after 72 hrs by Alamar Blue assay. To be noted: UMUC3, 72 h. The format is functional, cell-based.
The target of data set [25] is T1, Kinesin-like protein KIF20B. The experiment in a line: Inhibition of basal ATPase activity of N-terminal His6-tagged/SUMO-fused human MPP1 motor domain (2 to 477 residues) expressed in Escherichia coli BL21 CodonPlus in presence of 0.1% Tween-20 by pyruvate kinase/lactate dehydrogenase-linked assay.
Data set [26] in a line: Drug level in human liver microsomes treated with norlobaridone at 3 uM in presence of NADPH after 5 to 45 mins by LC-MS/MS method. The format is ADME.

Values after ≈ are worked out from the molar mass of the structure shown. Active and inactive are the calls of the source. The rule behind the calls is not given here. Bounds are passed on as bounds.

On to `CCCCCc1cc(O)cc2c1Oc1cc(O)cc(C(=O)CCCC)c1C(=O)O2`, for which, in data set [1], the recovery at 5 h, 10 µM was 95.1%. Moreover, the half-maximal effective concentration (EC50) in data set [2] came out at 48.3 µM; in data set [15], 33.1 µM; in data set [16], 43.7 µM; in data set [23], 42.9 µM; in data set [24] it was 30.5 µM. The Drug metabolism result in data set [3], in data set [20] and in [21] was “Metabolite_Detected” throughout. Further, the half-life at 3 µM stood at 3.1 min in [4] and 3.5 min in [10]. The kinetic solubility at 2 h in data set [5] was 6.5 µM (≈ 2.59 µg/mL); in data set [6] it was 3.75 µM (≈ 1.49 µg/mL); in data set [13] it was 37.5 µM (≈ 14.9 µg/mL). The inhibition entry in [7] and in data set [25] was “Active” throughout. In addition, the Papp at 5 h, 10 µM in [8] is 32.4 ×10⁻⁶ cm/s. Moreover, the microsomal CLint at 3 µM in [9] turned out to be 452 µL/min/mg; in [19] it was 393 µL/min/mg. The IC50 stood at 24.4 µM in [11], 7.6 µM in data set [14], 18.7 µM in [17] and 10.8 µM in data set [22]. Also, the Imax in data set [11] came to 90%; in data set [14], 90%; in data set [17], 75%; in data set [22] it was 80%. Moreover, the efflux ratio at 2 h, 10 µM in data set [12] is 0.51. In addition, the logD in [18] amounted to 3.5.
For the compound `CCCCC(=O)c1cc(O)cc(O)c1C(=O)OC`, the Drug metabolism entry in [26] is reported as “Metabolite_Detected”.
`CCCCC(=O)c1cc(O)cc2c1C(=O)Oc1cc(O)cc(CCCCCO)c1O2`: in [26], the Drug metabolism result is “Metabolite_Detected”.
Turning to `CCCCCc1cc(O)cc(O)c1Oc1cc(O)cc(C(=O)CCCC)c1C(=O)O`, the Drug metabolism result in data set [26] is “Metabolite_Detected”.
On to `CCCCCc1c2c(cc(O)c1C(=O)O)OC(=O)c1c(cc(OC)cc1C(=O)CCCC)O2` [LOBARIC ACID], for which the EC50 stood at 3.6 µM in data set [2]; 1.6 µM in [15]; 1.4 µM in data set [16]; 0.8 µM in data set [23]; 3.7 µM in [24].
As to `Cc1cc(O)cc2c1C(=O)Oc1cc3c(c(O)c1O2)C(=O)OC3` [VARIOLARIC ACID], the EC50 in [2] was greater than 50 µM; in data set [16], greater than 100 µM; in data set [23], greater than 100 µM; in [24], greater than 100 µM.
